Laboratory results reported in patent US5756491A, “Antiviral cobalt-organic compounds” (priority 1991, dated 1998).

Key:
HSV-1 McKrae Strain [1] = assay: Direct virucidal efficacy against HSV-1 on HFF monolayers; format: cell-based; conditions: for effective virucidal concentration IC50 / effective virucidal concentration IC90: HSV-1
HSV-1 McKrae Strain [2] = assay: Intracellular antiviral activity against HSV-1 in HFF monolayers; format: cell-based; conditions: for antiviral efficacy (HSV-1 titer): Experiment 7 (Table 18), 24 h PI
Protocol: HSV-1 McKrae Strain was diluted to a final concentration of 10^5 PFU/ml in minimal essential medium (MEM). Hereinafter, this dilution is referred to as the HSV-1 Suspension for convenience.
With sufficient stirring, all the compounds completely dissolved.
HFF cell monolayers were inoculated with the HSV-Suspension prepared as above by absorption for thirty minutes at 37° C. After absorption of the virus, the inoculum was aspirated from the cell monolayers and the HSV-1 infected monolayers were rehydrated with medium containing the appropriate concentration of the solution of the compound by adding 500 microliters of each compound concentration to triplicate HSV-1 infected monolayers. All monolayers were incubated at 37° C. The developing HSV-1 cytopathology was monitored daily for two days by inverted light microscopy and titers were calculated by multiple […] analysis. For the intracellular anti-viral activity, "cell monolayer controls" were obtained using sham inoculated non-treated HFF cell monolayers along with the drug treated monolayers. "Positive controls" were obtained by using HSV-1 inoculated non-CTC compound treated HFF monolayers.

RE strain HSV-1 = assay: HSV-1 recovery from tear film, cornea and trigeminal ganglia of treated rabbits; format: in vivo, NZW rabbit
Text: The specified number of NZW rabbits (1.5-2.0 kg) were used. Animals were received at least two days prior to inoculation to allow them to accommodate to the conditions in the vivarium facility. This conditioning of the animals prior to inoculation minimizes animal variability. After the accommodation, the animals received a slit-lamp examination to exclude any animals with pre-existing anterior segment ocular defects. Animals were bi-laterally inoculated by intrastromal injection of 10^5 PFU RE strain HSV-1. The animals were then replaced individually into cages.
[…] This was carried out by obtaining tear film by swabbing the lower and upper conjunctival sacs and retaining the swab in the nasal fornix for 10 seconds. The swabs were eluted individually in HBSS. 50 μl aliquots of the virus-HBSS eluate were absorbed under confluent HFF cell monolayers for 5 minutes. The monolayers were hydrated with MEM, incubated at 37° C. and observed daily for 1 to 2 weeks to detect developing cytopathology consistent with HSV infection (HSV CPE).
(§1) On day 10 PI, the animals were sacrificed, the corneal epithelium was scraped from the eyes and epithelial and corneal stromal cultures were preformed on HFF cell monolayers. The separation of epithelial virus from deeper stromal virus infection allows for analysis of HSV in these distinct corneal layers. Corneal epithelial and stromal co-cultures were evaluated daily by inverted light microscopy.
At sacrifice, trigeminal ganglia were removed, washed in HBSS, minced and floated over duplicate HFF cell monolayers. The cell co-cultures were monitored by inverted light microscopy for 2 weeks. Negative cultures were blind passaged twice at 7 day intervals. Detection of HSV CPE in the whole-cell co-cultures was scored either positive or negative. HSV recovery from inventive compound-treated, TFT-treated and placebo-treated trigeminal ganglia was compared and differences in recovery rates analyzed.
as §1, with “7” for “10”, “performed” for “preformed”

HFF cells [3] = assay: MTT assay for cell cytotoxicity; format: cell-based, human; conditions: stationary cells
Protocol: Twenty-four hours prior to assay, HFF cells are plated into 96 well plates at a concentration of […] cells per well. After 24 h, the media is aspirated and […] of drug is added to the first row of wells and then diluted serially 1:5 using the automated Cetus Liquid Handling System in a manner similar to that used in the CPE assay. The plates are then incubated in a CO2 incubator at 37° C. for seven days. At this time, each well receives 50 microliters of […] solution of MTT in Dulbecco's Phosphate Buffered Saline. The plates are then incubated for an additional four hours. At this time, the media is removed and replaced with 100 μl of 0.04N hydrochloric acid in isopropanol. After shaking briefly, the plates are then read on a plate reader at 550 nm.

HFF cells [4] = assay: Cell proliferation assay; format: cell-based, human; conditions: rapidly growing cells
Protocol: Twenty-four hours prior to assay, HFF cells are seeded in 6-well plates at a concentration of 2.5×10^4 cells per well in MEM containing 10% FBS. On the day of the assay, drugs are diluted serially in MEM containing 10% FBS at increments of 1:5 covering a range from 100 μg/ml to 0.03 μg/ml. […] The media from the wells is then aspirated and 2 ml of each drug concentration is then added to each well. The cells are then incubated in a Co2 incubator at 37° C. for 72 h. At the end of this time, the media-drug solution is removed and the cells washed. […] The cell-media mixture is then pipetted up and down vigorously to break up the cell suspension and 0.2 ml of the mixture is added to 9.8 ml of Isoton III and counted using a Coulter Counter. Each sample is counted three times with three replicate wells per sample.

For `CC([O-])=CC(C)=NCCN=C(C)C=C(C)[O-].Cc1ncc[nH]1.Cc1ncc[nH]1.[Br-].[Co+3]` [Compound 96], the “virucidal efficacy (HSV-1 titer)” value (HSV-1 McKrae Strain [1]; Experiment 2 (Table 5), 24 h PI, 0.001 mg/ml) was 10^4 PFU/ml, the “virucidal efficacy (HSV-1 titer)” value (HSV-1 McKrae Strain [1]; Experiment 2 (Table 5), 24 h PI, 1 mg/ml) was 0 PFU/ml and the “virucidal efficacy (HSV-1 titer)” value (HSV-1 McKrae Strain [1]; Experiment 2 (Table 5), 48 h PI, 0.01 mg/ml) was 10^6 PFU/ml. The “virucidal efficacy (HSV-1 titer)” value (HSV-1 McKrae Strain [1]; Experiment 2 (Table 5), 48 h PI, 1 mg/ml) was 0 PFU/ml, the “effective virucidal concentration IC50” value (HSV-1 McKrae Strain [1]; Experiment 2 (Table 6)) was 100 µg/mL and the “virucidal efficacy (HSV-1 titer)” value (HSV-1 McKrae Strain [1]; Experiment 3 (Table 8), 24 h PI, 0.001 mg/ml) was 10^5 PFU/ml. For the same compound, the “virucidal efficacy (HSV-1 titer)” value (HSV-1 McKrae Strain [1]; Experiment 3 (Table 8), 24 h PI, 1 mg/ml) was 0 PFU/ml, the “virucidal efficacy (HSV-1 titer)” value (HSV-1 McKrae Strain [1]; Experiment 3 (Table 8), 48 h PI, 1 mg/ml) was 10^5 PFU/ml and the “virucidal efficacy (HSV-1 titer)” value (HSV-1 McKrae Strain [1]; Experiment 4 (Table 9), 24 h PI, Run 1, 5 mg/ml) was 0 PFU/ml. For the same compound, the “virucidal efficacy (HSV-1 titer)” value (HSV-1 McKrae Strain [1]; Experiment 4 (Table 9), 24 h PI, Run 2, 0.01 mg/ml) was 10^4 PFU/ml, the “virucidal efficacy (HSV-1 titer)” value (HSV-1 McKrae Strain [1]; Experiment 4 (Table 9), 24 h PI, Run 2, 0.1 mg/ml) was 10^2 PFU/ml and the “virucidal efficacy (HSV-1 titer)” value (HSV-1 McKrae Strain [1]; Experiment 4 (Table 9), 24 h PI, Run 2, 1 mg/ml) was 0 PFU/ml. For the same compound, the “virucidal efficacy (HSV-1 titer)” value (HSV-1 McKrae Strain [1]; Experiment 4 (Table 9), 24 h PI, Run 2, 5 mg/ml) was 0 PFU/ml, the “effective virucidal concentration IC90” value (HSV-1 McKrae Strain [1]; Experiment 4 (Table 11)) was greater than 1000 µg/mL and the “virucidal efficacy (HSV-1 titer)” value (HSV-1 McKrae Strain [1]; Experiment 5 (Table 12), 24 h PI, Run 1, 0.0001 mg/ml) was 10^5 PFU/ml. The “virucidal efficacy (HSV-1 titer)” value (HSV-1 McKrae Strain [1]; Experiment 5 (Table 12), 24 h PI, Run 1, 0.1 mg/ml) was 10^2 PFU/ml, the “virucidal efficacy (HSV-1 titer)” value (HSV-1 McKrae Strain [1]; Experiment 5 (Table 12), 24 h PI, Run 1, 1 mg/ml) was 0 PFU/ml and the “virucidal efficacy (HSV-1 titer)” value (HSV-1 McKrae Strain [1]; Experiment 5 (Table 12), 24 h PI, Run 1, 5 mg/ml) was 0 PFU/ml. The “virucidal efficacy (HSV-1 titer)” value (HSV-1 McKrae Strain [1]; Experiment 5 (Table 12), 24 h PI, Run 2, 0.0001 mg/ml) was 10^3 PFU/ml, the “virucidal efficacy (HSV-1 titer)” value (HSV-1 McKrae Strain [1]; Experiment 5 (Table 12), 24 h PI, Run 2, 0.001 mg/ml) was 10^3 PFU/ml and the “virucidal efficacy (HSV-1 titer)” value (HSV-1 McKrae Strain [1]; Experiment 5 (Table 12), 24 h PI, Run 2, 0.01 mg/ml) was 10^3 PFU/ml. For the same compound, the “virucidal efficacy (HSV-1 titer)” value (HSV-1 McKrae Strain [1]; Experiment 5 (Table 12), 24 h PI, Run 2, 0.1 mg/ml) was 0 PFU/ml, the “virucidal efficacy (HSV-1 titer)” value (HSV-1 McKrae Strain [1]; Experiment 5 (Table 12), 24 h PI, Run 2, 1 mg/ml) was 0 PFU/ml and the “virucidal efficacy (HSV-1 titer)” value (HSV-1 McKrae Strain [1]; Experiment 5 (Table 12), 24 h PI, Run 2, 5 mg/ml) was 0 PFU/ml. The “effective virucidal concentration IC50” value (HSV-1 McKrae Strain [1]; Experiment 5 (Table 14)) was 100 to 1000 µg/mL, the “effective virucidal concentration IC90” value (HSV-1 McKrae Strain [1]; Experiment 5 (Table 14)) was greater than 1000 µg/mL and the “virucidal efficacy (HSV-1 titer)” value (HSV-1 McKrae Strain [1]; Experiment 6 (Table 16), 24 h PI, 0.5 mg/ml) was 0 PFU/ml. The “virucidal efficacy (HSV-1 titer)” value (HSV-1 McKrae Strain [1]; Experiment 6 (Table 16), 24 h PI, 1 mg/ml) was 0 PFU/ml, the “virucidal efficacy (HSV-1 titer)” value (HSV-1 McKrae Strain [1]; Experiment 6 (Table 16), 24 h PI, 2 mg/ml) was 0 PFU/ml and the “virucidal efficacy (HSV-1 titer)” value (HSV-1 McKrae Strain [1]; Experiment 6 (Table 16), 24 h PI, 5 mg/ml) was 0 PFU/ml. For the same compound, the “effective virucidal concentration IC50” value (HSV-1 McKrae Strain [1]; Experiment 6 (Table 17)) was 100 µg/mL, the “efficacy in virucidal assay (comment)” value (HSV-1 McKrae Strain [1]; Experiment 6 comment, reduction in toxicity resulted in it) was “reduction in efficacy” and the “antiviral efficacy (HSV-1 titer)” value (HSV-1 McKrae Strain [2]; 0.1 mg/ml) was 10^2 PFU/ml. The “antiviral efficacy (HSV-1 titer)” value (HSV-1 McKrae Strain [2]; 2 mg/ml) was 0 PFU/ml, the “antiviral efficacy (HSV-1 titer)” value (HSV-1 McKrae Strain [2]; 5 mg/ml) was 0 PFU/ml and the “effective virucidal concentration IC50” value (HSV-1 McKrae Strain [2]; Experiment 7 (Table 19), HSV-1) was 500 to 1000 µg/mL. For the same compound, the “HSV-1 recovery, corneal epithelium (C.E.)” value (RE strain HSV-1; Example 3 (Table 22)) was 50%, the “HSV-1 recovery, corneal stroma (C.S.)” value (RE strain HSV-1; Example 3 (Table 22)) was 50% and the “HSV-1 recovery, trigeminal ganglia (T.G.)” value (RE strain HSV-1; Example 3 (Table 22)) was 50%. For the same compound, the “HSV-1 recovery, tear film (positive samples of total)” value (from here on “HSV-1 recovery, tear film”) (RE strain HSV-1; Example 3 (Table 22), day 3 PI) was 100%, the “HSV-1 recovery, tear film” value (RE strain HSV-1; Example 3 (Table 22), day 5 PI) was 100% and the “HSV-1 recovery, tear film” value (RE strain HSV-1; Example 3 (Table 22), day 7 PI) was 80%. The “HSV-1 recovery, tear film” value (RE strain HSV-1; Example 3 (Table 22), day 9 PI) was 0%, the “recovery of HSV-1 in tear film” value (RE strain HSV-1; Example 4) was “reduced the recovery of HSV-1 in tear film” and the “HSV-1 recovery, corneal stroma” value (RE strain HSV-1; Example 5 (Table 23)) was 70%. The “HSV-1 recovery (positive cultures per total)” value (RE strain HSV-1; Example 5 (Table 23), column 1) was 0%, the “HSV-1 recovery (positive cultures per total)” value (RE strain HSV-1; Example 5 (Table 23), column 3) was 100% and the “HSV-1 recovery (positive cultures per total)” value (RE strain HSV-1; Example 5 (Table 23), column 5) was 90%. For the same compound, the “HSV-1 recovery (positive cultures per total)” value (RE strain HSV-1; Example 5 (Table 23), column 7) was 70%, the “toxicity IC50, MTT toxicity” value (HFF cells [3]) was greater than 74 MCG/ML and the “toxicity IC50, cell proliferation” value (HFF cells [4]) was 21.0 MCG/ML.
